Laboratory results taken from PubChem BioAssay (NCI).
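Grown in 96-well plates, cells were treated for 48 hours with each compound at five concentrations. Insufficient inhibition: endpoint recorded as highest concentration tested. Here, GI50 denotes the concentration required for 50% inhibition of growth. TGI: total growth inhibition.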

What was measured:
Experiment in all cases: growth of human tumour cells (NCI), 48 h
[1] = system: MDA-MB-231 breast
[2] = system: MDA-MB-435
[3] = system: MCF7 breast
[4] = system: MDA-N

| SMILES | GI50 [1] [µM] | TGI [1] [µM] | GI50 [2] [µM] | TGI [2] [µM] | GI50 [3] [µM] | TGI [3] [µM] | TGI [4] [µM] |
| --- | --- | --- | --- | --- | --- | --- | --- |
| CCSc1nc(N)c(C#N)c(-c2ccc(OC)c(OC)c2)c1C#N | 11.7 | 48.9 | 3.85 | 22.5 | 10.6 | > 50 | – |
| Cn1c(=O)c2[nH]c(CCS)nc2n(C)c1=O | – | > 100 | – | > 100 | – | > 100 | > 100 |
| COc1cc2c3c(n(CCCN=[N+]=[N-])c(=O)c2cc1OC)-c1ccc(NC(C)=O)cc1C3=O | > 50 | > 50 | > 50 | > 50 | > 50 | > 50 | – |
| Cn1c(=S)c2[nH]c(SCc3cccnc3)nc2n(C)c1=O | – | > 100 | – | > 100 | – | > 100 | > 100 |
| CCN1Cc2c(/C=C/c3ccccc3)nc3ccc(OC)cc3c2N(c2cccc(Cl)c2)C1 | 1.75 | 3.69 | 1.81 | 3.7 | 1.65 | 3.75 | – |
| COc1ccc(C#CC2=C(Br)C(=O)OC2)cc1 | 9.48 | 27.6 | 9.94 | 27.3 | 2.47 | > 50 | – |
| CCC1C[N+]2=C(c3cc(OC)c(OC)cc3CC2)c2c1cc1n2CCc2cc(OC)c(OC)cc2-1 (configuration not stated) | 2.27 | 8.44 | 1.62 | 6.09 | 1.25 | 13.3 | – |
| Cc1nc2sc(C(=O)Nc3cccc(Cl)c3C)c(N)c2cc1C(O)c1ccccc1 (configuration not stated) | 0.0834 | 6.95 | – | – | 0.0332 | 11.3 | – |
| CN1CCC(n2cnc(-c3ccc(F)cc3)c2-c2ccnc(Nc3ccccc3)n2)CC1 | 13.6 | > 25 | 3.64 | 11.9 | 1.83 | > 25 | – |
| O=CCC(O)C(O)C(O)CO (configuration not stated) | > 100 | > 100 | > 100 | > 100 | > 100 | > 100 | – |
| C=C(C)C1Cc2cc(C(C)=O)ccc2O1 (configuration not stated) | – | > 100 | – | > 100 | – | > 100 | > 100 |
| O=C1c2ccccc2-c2c1c1ccc3ccccc3c1n2-c1ccccc1 | 22.3 | 47.3 | 97.9 | > 100 | 15.6 | > 100 | – |
| C=CC(=O)N1CCC(CNc2ncnc(N)c2-c2ccc(Oc3ccccc3)cc2)CC1 | 25.5 | 89 | 27.9 | 97.5 | 23.4 | > 100 | – |
| CCCCCC/C=C\CCCCCCCCCc1cccc(OC)c1O | – | > 100 | – | > 100 | – | > 100 | > 100 |
| Clc1ccc2c(NCCNc3nc(N4CCCCC4)nc4ccccc34)ccnc2c1 | – | – | 1.74 | 3.43 | 0.748 | 12.6 | – |
| COC(=O)[C@]12CC[C@@H](C)[C@H](C)[C@@H]1C1=CC[C@@H]3[C@@]4(C)C(C=O)=C[C@@](C)(COC(=O)c5ccco5)C4=CC[C@@]3(C)[C@]1(C)CC2 | 2.73 | 9.47 | 0.0663 | 2.96 | 2.77 | 10.3 | – |
| CCCCc1n(Cc2ccc3ccccc3n2)cc[n+]1Cc1ccc2ccccc2c1 | 0.635 | 2.04 | 0.661 | 1.9 | 0.69 | 2.27 | – |
| COc1ccccc1N1CCN(CC(O)Cn2c(=O)c3c(OC)nc(C)cc3c(=O)n2-c2ccccc2)CC1 (configuration not stated) | 24.3 | > 100 | > 100 | > 100 | > 100 | > 100 | – |
| Fc1cccc(-c2nc(-c3c[nH]c4ncccc34)cs2)c1 | 38.2 | > 100 | > 100 | > 100 | 5.27 | > 100 | – |
| O=C(O)c1ccccc1C(=O)Nc1cc2c(cc1Br)-c1ccccc1C2=O | – | > 100 | – | > 100 | – | > 100 | > 100 |
| COc1ccc2c3c1OC1C4(CCC5C(C2)N(CC2CC2)CCC351)OCCO4 (configuration not stated) | – | > 100 | – | > 100 | – | > 100 | > 100 |
| CC(=O)OCCC/C(=C/c1cc2ccccc2c2ccccc12)[N+](=O)[O-] | 1.78 | 4.3 | 1.46 | 3.16 | 0.545 | 1.95 | – |
| COc1ccc(/C=N/C2=NNC(C)(c3ccccc3O)N2C(Cc2c[nH]c3ccccc23)C(=O)O)cc1 (configuration not stated) | 1.89 | 8.89 | 1.7 | 5.68 | 2.23 | 10.9 | – |

| SMILES | GI50 [1] [µM] | TGI [1] [µM] | GI50 [2] [µM] | TGI [2] [µM] | GI50 [3] [µM] | TGI [3] [µM] | TGI [4] [µM] |
| --- | --- | --- | --- | --- | --- | --- | --- |
| CCN(CC)CCOc1ccccc1-n1c(C)ccc1-c1ccccc1 | 6.54 | 20.7 | 14.4 | 29.9 | 13 | 26.7 | – |
| NCCNc1nc2ccc(F)cc2c2c(=O)c3cc(F)ccc3sc12 | 1.51 | 3.08 | 1.77 | 3.29 | – | – | – |
| COC(=O)C(Br)(C(=O)OC)C(Br)C(Br)C(Br)c1ccccc1 (configuration not stated) | 3.11 | 9.71 | 2.48 | 7.36 | 1.67 | 5.07 | – |
| CSc1ccc(NC(=O)CCl)cc1 | – | > 10 | – | > 10 | – | > 10 | > 10 |
| CCN1C(=O)N[C@H]2[C@@H]3NC(=O)c4ccc(Cl)n4[C@@H]3C[C@]21O | 0.822 | 7.25 | 1.05 | 11.1 | 0.242 | 1.5 | – |
| COc1ccc(-n2nc(C(=O)NCC(=O)Nc3nc4cc(OC)ccc4s3)c3ccccc3c2=O)cc1 | 1.49 | 4.46 | 0.641 | 14.3 | 1.35 | > 32 | – |
| O=C1Nc2cc(-c3ccc(O)cc3)ccc2/C1=C/c1ccc[nH]1 | 0.154 | 6.66 | 0.0708 | > 100 | – | – | – |
| NC1=C(/C(N)=N/O)C(c2ccccc2)c2ccc3ccccc3c2O1 (configuration not stated) | 0.988 | 24.5 | – | – | 0.261 | 97.4 | – |
| COc1cc(NC(=O)c2cc3ccccc3cc2O)c(OC)cc1Cl | 1.57 | 4.79 | – | – | 1.93 | 7.13 | – |
| COc1ncc(-c2ccc3ncnc(Nc4cccc(Cl)c4)c3c2)cc1NS(C)(=O)=O | 1.99 | 19.6 | 2.77 | 17.3 | 0.404 | 11.1 | – |
| COc1ccc2c(ccc3oc([N+](=O)[O-])cc32)c1 | 0.167 | 0.596 | 0.047 | 0.186 | 0.176 | 3 | – |
| COc1cc(-c2cn(-c3ccc(F)cc3)c(=O)[nH]2)cc(OC)c1OC | > 100 | > 100 | > 100 | > 100 | > 100 | > 100 | – |
| CCOC(=O)CC1C(CNC(=O)NC)OC(n2cnc3c(NC(=O)Nc4ccccc4)ncnc32)C1O[Si](C)(C)C(C)(C)C (configuration not stated) | 3.96 | 41.3 | 6.21 | > 100 | 3.42 | 45.1 | – |
| N#Cc1cc2c(=S)[nH]c(=S)[nH]c2nc1SCc1ccccc1 | 21.7 | 87.4 | 34.8 | > 100 | 50.6 | > 100 | – |
| CCOc1cc(CCNC)c2c(ccc3ccc(OC)c(O)c32)c1OC | – | 28.5 | – | 27.5 | – | 22.4 | 10.5 |
| COC(=O)C[C@@H]1CC=CC(=O)/C1=C(O)/C=C/c1ccccc1 | 1.46 | 4.22 | 0.357 | 1.41 | 0.374 | 3.04 | – |
| Nc1n[nH]c2cc(F)c([C@@H]3Nc4c(F)cc5[nH]ncc5c4[C@H]4C5CCC(C5)[C@@H]34)cc12 (some centres not stated) | 0.135 | 5.05 | 0.0727 | 0.195 | 0.118 | 6.32 | – |
| COc1ccc2cn3c4ccc(O)cc4[nH]c(=O)c3c2c1 | 0.434 | 14.8 | 0.0248 | 0.0692 | 0.236 | 14.6 | – |
| COc1ccc(OC)c(-c2nc3sc(C)cn3c2/C=C2\C(=O)N(C)c3ccccc32)c1 | 15.3 | 66.3 | 4.04 | 18.6 | 12.7 | 41.8 | – |
| COc1ccc(-c2cncn2-c2ccc(-c3nc4cc(OC)c(OC)c(OC)c4s3)cc2)cc1N | > 100 | > 100 | 3.13 | > 100 | 4.07 | > 100 | – |
| COc1ccccc1CNC(=O)/C=C/c1ccc(O)c(O)c1 | 22.6 | > 100 | 58.3 | > 100 | > 100 | > 100 | – |
| C=C(C)[C@@H]1CC[C@]2(COC(=O)c3ccccc3C(=O)O)CC[C@]3(C)[C@H](CC[C@@H]4[C@@]5(C)CC[C@H](OC(=O)c6ccccc6C(=O)O)C(C)(C)[C@@H]5CC[C@]43C)[C@@H]12 | 25 | 69.3 | 34.6 | > 100 | > 100 | > 100 | – |
